Like-named read-outs stand apart in the source and are kept apart here.
Tests used:
Type in all cases: cell-based
[1] = test system: PBMCs from four healthy donors; assay: Cytokine secretion by anti-CD3 stimulated PBMCs (MSD)
Experimental: Purified PBMCs from four healthy donors were plated on anti-CD3 antibody-coated plates to stimulate T cells and were subsequently treated with either DMSO (control) or Compound 1 at various concentrations for 3, 4, and 7 days. Secretion of cytokines was measured in supernatant fluid from PBMC cultures over time by using mesoscale (MSD) assays. Compound 1 induced IL-2 secretion at all concentrations tested.

SU-DHL-2^CRBNWT cells = assay: Live-cell imaging of caspase-3 activation; settings: time course of 112 hours
Experimental: To confirm the timing of induction of apoptosis and its cereblon dependency, a live-cell imager that provides kinetic, real-time caspase-3 activation (indicator of apoptosis) data was used. SU-DHL-2^CRBNWT cells treated with Compound 1 were analyzed for caspase-3 activation by following the cleavage in cells of a specific caspase-3 enzyme substrate over a time course of 112 hours. Compound 1-dependent induction of caspase-3 activity began at 12 hours post treatment and reached maximal induction at ˜72 hours (FIG. 5 D).

SU-DHL-8 = assay: 5-day viable cell number and apoptosis (7-AAD exclusion/Annexin V flow cytometry)
In short: (§1)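 Steps: cells treated with rising compound concentrations; incubated five days; viable cells enumerated; apoptotic fraction measured by flow cytometry (7-AAD exclusion, Annexin V).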

DB = assay: as above; settings: DB cells, 5 days
In short: as §1

OCI-Ly10 = assay: as above
In short: as §1

RC-K8 = assay: as above
In short: as §1

SU-DHL-10 = assay: as above
In short: as §1

RIVA = assay: as above
In short: as §1

KARPAS-1106P = assay: as above
In short: as §1

U2932 = assay: as above
In short: as §1

[2] = Homo sapiens, 120 h, SU-DHL-8 cells, 5 days
[3] = Homo sapiens, 120 h, OCI-Ly10 cells, 5 days
[4] = Homo sapiens, RCK8, 120 h, RC-K8 cells, 5 days
[5] = Homo sapiens, SU-DHL10, 120 h, SU-DHL-10 cells, 5 days
[6] = Homo sapiens, 120 h, KARPAS-1106P cells, 5 days
[7] = Homo sapiens, 120 h, U2932 cells, 5 days

O=C1CC[C@H](N2C(=O)c3cccc(NCc4ccc(CN5CC(N6CCOCC6)C5)cc4F)c3C2=O)C(=O)N1 [Compound 1, (S)-2-(2,6-dioxopiperidin-3-yl)-4-((2-fluoro-4-((3-morpholinoazetidin-1-yl)methyl)benzyl)amino)isoindoline-1,3-dione]
Interleukin-2 secretion by PBMCs ([1]; 0.1 to 100 nM, 3, 4, and 7 days): increased | other monitored cytokines (TNFα, IFNγ, IL-4, IL-13, IL-10, and IL-6) ([1]; 3, 4, and 7 days): Transient or no effect | start of induction of caspase-3 activity post treatment (SU-DHL-2^CRBNWT cells): 12 h | time of maximal induction of caspase-3 activity (SU-DHL-2^CRBNWT cells): ~72 h | EC50 (SU-DHL-8; [2]): 509 nM | Emax (SU-DHL-8; [2]): 70.5% | IC50 (SU-DHL-8; Homo sapiens, 120 h, SU-DHL-8 cells, 5 days, read-out: % Viable Cells IC50): 250 nM | IC50 (SU-DHL-8; Homo sapiens, SU-DHL-8 cells (Table 3), read-out: IC50): 54000 nM | % Viable Cells AUC (SU-DHL-8; SU-DHL-8 cells, 5 days): 54.43 | % Viable Cells Emax (SU-DHL-8; SU-DHL-8 cells, 5 days): 2.508% | % Viable Cells Sensitivity (SU-DHL-8; SU-DHL-8 cells, 5 days): High (highly sensitive to Compound 1 with less than 6% viable cells remaining (Emax) after treatment) | Apoptosis AUC (SU-DHL-8; SU-DHL-8 cells, 5 days): 652.5 | Apoptosis Sensitivity (SU-DHL-8; SU-DHL-8 cells, 5 days): High | % Viable Cells AUC (DB): 1173 | % Viable Cells Emax (DB): 107.1% | % Viable Cells Sensitivity (DB): Limited | Apoptosis AUC (DB): 0 | Apoptosis Sensitivity (DB): Limited | EC50 (OCI-Ly10; [3]): 2090 nM | Emax (OCI-Ly10; [3]): 29.4% | IC50 (OCI-Ly10; Homo sapiens, 120 h, OCI-Ly10 cells, 5 days, read-out: % Viable Cells IC50): 50 nM | IC50 (OCI-Ly10; Homo sapiens, OCI-Ly10 cells (Table 3), read-out: IC50): 267000 nM | % Viable Cells AUC (OCI-Ly10; OCI-Ly10 cells, 5 days): 267.3 | % Viable Cells Emax (OCI-Ly10; OCI-Ly10 cells, 5 days): 19.19% | % Viable Cells Sensitivity (OCI-Ly10; OCI-Ly10 cells, 5 days): Intermediate (intermediate sensitivity with 15% to 55% cell viability) | Apoptosis AUC (OCI-Ly10; OCI-Ly10 cells, 5 days): 187.7 | Apoptosis Sensitivity (OCI-Ly10; OCI-Ly10 cells, 5 days): Intermediate | EC50 (RC-K8; [4]): 230 nM | Emax (RC-K8; [4]): 9.53% | IC50 (RC-K8; Homo sapiens, RCK8, 120 h, RC-K8 cells, 5 days, read-out: % Viable Cells IC50): 100 nM | IC50 (RC-K8; Homo sapiens, RCK8, RC-K8 cells (Table 3), read-out: IC50): 409000 nM | % Viable Cells AUC (RC-K8; RC-K8 cells, 5 days): 409.1 | % Viable Cells Emax (RC-K8; RC-K8 cells, 5 days): 34.92% | % Viable Cells Sensitivity (RC-K8; RC-K8 cells, 5 days): Intermediate (intermediate sensitivity with 15% to 55% cell viability) | Apoptosis AUC (RC-K8; RC-K8 cells, 5 days): 81.59 | Apoptosis Sensitivity (RC-K8; RC-K8 cells, 5 days): Intermediate | EC50 (SU-DHL-10; [5]): 16.3 nM | Emax (SU-DHL-10; [5]): 81.9% | IC50 (SU-DHL-10; Homo sapiens, SU-DHL10, 120 h, SU-DHL-10 cells, 5 days, read-out: % Viable Cells IC50): 10 nM | IC50 (SU-DHL-10; Homo sapiens, SU-DHL10, SU-DHL-10 cells (Table 3), read-out: IC50): 3400 nM | % Viable Cells AUC (SU-DHL-10; SU-DHL-10 cells, 5 days): 3.371 | % Viable Cells Emax (SU-DHL-10; SU-DHL-10 cells, 5 days): 2.477% | % Viable Cells Sensitivity (SU-DHL-10; SU-DHL-10 cells, 5 days): High (highly sensitive to Compound 1 with less than 6% viable cells remaining (Emax) after treatment) | Apoptosis AUC (SU-DHL-10; SU-DHL-10 cells, 5 days): 815.3 | Apoptosis Sensitivity (SU-DHL-10; SU-DHL-10 cells, 5 days): High | EC50 (RIVA; 120 h, RIVA cells, 5 days): 19 nM | Emax (RIVA; 120 h, RIVA cells, 5 days): 22.7% | IC50 (RIVA; 120 h, RIVA cells, 5 days, read-out: % Viable Cells IC50): 50 nM | IC50 (RIVA; RIVA cells (Table 3), read-out: IC50): 396000 nM | % Viable Cells AUC (RIVA; RIVA cells, 5 days): 395.8 | % Viable Cells Emax (RIVA; RIVA cells, 5 days): 36.99% | % Viable Cells Sensitivity (RIVA; RIVA cells, 5 days): Intermediate (intermediate sensitivity with 15% to 55% cell viability) | Apoptosis AUC (RIVA; RIVA cells, 5 days): 216.6 | Apoptosis Sensitivity (RIVA; RIVA cells, 5 days): Intermediate | EC50 (KARPAS-1106P; [6]): 56.1 nM | Emax (KARPAS-1106P; [6]): 59.8% | IC50 (KARPAS-1106P; Homo sapiens, 120 h, KARPAS-1106P cells, 5 days, read-out: % Viable Cells IC50): 25 nM | IC50 (KARPAS-1106P; Homo sapiens, KARPAS-1106P cells (Table 3), read-out: IC50): 111000 nM | % Viable Cells AUC (KARPAS-1106P; KARPAS-1106P cells, 5 days): 110.9 | % Viable Cells Emax (KARPAS-1106P; KARPAS-1106P cells, 5 days): 1.183% | % Viable Cells Sensitivity (KARPAS-1106P; KARPAS-1106P cells, 5 days): High (highly sensitive to Compound 1 with less than 6% viable cells remaining (Emax) after treatment) | Apoptosis AUC (KARPAS-1106P; KARPAS-1106P cells, 5 days): 597.7 | Apoptosis Sensitivity (KARPAS-1106P; KARPAS-1106P cells, 5 days): High | EC50 (U2932; [7]): 11900 nM | Emax (U2932; [7]): 69.9% | IC50 (U2932; Homo sapiens, 120 h, U2932 cells, 5 days, read-out: % Viable Cells IC50): 100 nM | IC50 (U2932; Homo sapiens, U2932 cells (Table 3), read-out: IC50): 327000 nM | % Viable Cells AUC (U2932; U2932 cells, 5 days): 327.1 | % Viable Cells Emax (U2932; U2932 cells, 5 days): 24.81%

Reference: patent US20210116454A1, “METHODS FOR TREATING A HEMATOLOGICAL CANCER AND THE USE OF COMPANION BIOMARKERS FOR 2-(2,6-DIOXOPIPERIDIN-3-YL)-4-((2-FLUORO-4-((3-MORPHOLINOAZETIDIN-1-YL)METHYL)BENZYL)AMINO)ISOINDOLINE-1,3-DIONE” (CELGENE CORPORATION, priority 2019, published 2021)
